{"source": "paper PMC10938454", "about": "“Preparation, Characterization, Antioxidant Activities, and Determination of Anti-Alzheimer Effects of PLGA-Based DDSs Containing Ferulic Acid” (ACS Omega, 2024)", "key": {"[1]": {"target": "T1, BuChE (butyrylcholinesterase) (Equus caballus, UniProt P81908)", "T1 construct": "gene BCHE; native enzyme isolated from horse serum", "T1 sequence (P81908 whole entry)": "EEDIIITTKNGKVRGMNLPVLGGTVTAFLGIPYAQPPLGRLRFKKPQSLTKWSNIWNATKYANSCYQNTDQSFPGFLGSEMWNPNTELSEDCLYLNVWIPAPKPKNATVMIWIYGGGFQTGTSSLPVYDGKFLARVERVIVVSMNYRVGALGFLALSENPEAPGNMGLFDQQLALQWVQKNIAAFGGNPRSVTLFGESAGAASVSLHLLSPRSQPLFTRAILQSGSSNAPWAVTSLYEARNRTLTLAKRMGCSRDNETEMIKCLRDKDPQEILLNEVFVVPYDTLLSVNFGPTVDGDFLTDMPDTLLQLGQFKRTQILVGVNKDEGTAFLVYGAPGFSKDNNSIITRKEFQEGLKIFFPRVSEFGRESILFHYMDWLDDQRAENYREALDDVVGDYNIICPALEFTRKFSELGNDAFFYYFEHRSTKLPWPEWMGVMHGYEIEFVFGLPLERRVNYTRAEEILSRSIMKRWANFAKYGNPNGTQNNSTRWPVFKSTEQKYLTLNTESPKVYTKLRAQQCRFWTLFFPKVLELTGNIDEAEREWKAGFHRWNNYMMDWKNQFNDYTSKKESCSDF", "assay": "Ellman assay, […] nm, microplate", "assay_type": "biochemical", "conditions": "read-out: IC50 (μg.mL^-1) (converted)"}, "[2]": {"target": "T2, AChE (acetylcholinesterase) (Electrophorus electricus, UniProt O42275)", "T2 construct": "native enzyme isolated from electric eel, type VI-S (printed 'type VIS')", "T2 sequence (O42275 24-633)": "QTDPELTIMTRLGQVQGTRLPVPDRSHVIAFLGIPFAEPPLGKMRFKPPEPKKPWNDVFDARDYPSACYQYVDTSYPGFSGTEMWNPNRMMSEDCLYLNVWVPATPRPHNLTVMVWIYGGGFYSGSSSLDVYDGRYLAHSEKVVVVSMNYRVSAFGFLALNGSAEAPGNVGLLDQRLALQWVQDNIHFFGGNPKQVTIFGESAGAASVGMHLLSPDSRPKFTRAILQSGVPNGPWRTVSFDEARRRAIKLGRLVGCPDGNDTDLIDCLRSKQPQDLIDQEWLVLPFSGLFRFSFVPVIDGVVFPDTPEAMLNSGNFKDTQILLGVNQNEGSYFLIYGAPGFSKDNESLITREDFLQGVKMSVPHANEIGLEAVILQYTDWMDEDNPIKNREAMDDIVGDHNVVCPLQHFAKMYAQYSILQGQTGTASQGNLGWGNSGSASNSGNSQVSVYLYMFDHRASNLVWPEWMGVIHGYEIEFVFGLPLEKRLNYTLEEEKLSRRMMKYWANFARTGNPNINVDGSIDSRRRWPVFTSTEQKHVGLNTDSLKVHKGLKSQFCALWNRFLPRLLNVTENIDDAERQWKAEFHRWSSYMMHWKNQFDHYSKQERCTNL", "assay": "Ellman assay, […] nm, microplate", "assay_type": "biochemical", "conditions": "read-out: IC50 (μg.mL^-1) (converted)"}}}
{"compound": "COc1cc(/C=C/C(=O)O)ccc1O", "note": "[ferulic acid]", "values": [{"measurement": "IC50", "setting": "[1]", "result": 2.68, "unit": "mM"}, {"measurement": "IC50", "setting": "[2]", "result": 2.1, "unit": "mM"}]}
